Data from US20160030416A1, “METHODS OF TREATING B2-BRADYKININ RECEPTOR MEDIATED ANGIOEDEMA” (SHIRE HUMAN GENETIC THERAPIES, INC., priority 2013, published 2016).

Columns and labels:
plasma extravasation [1] = assay: Plasma extravasation (Evans blue in bladder), oral gavage, wild-type male mice; format: in vivo, wild-type (WT) C57/BL6 male mice; details: for inhibition of plasma extravasation at % (compared to vehicle controls): after 64 minutes
From the text: (§1) In vivo experiments in both wild-type (WT) C57BL/6J mice and C1-inhibited knock out (C1 INH KO) mice measured pharmacodynamic efficacy by the ability of CFMQ to block plasma extravasation, which is causative to edema, the most important symptom requiring treatment in HAE subjects. This plasma extravasation model has been used extensively in the literature to investigate the efficacy of bradykinin receptor antagonists. (Han et al., “Increased vascular permeability in C1 inhibitor-deficient mice mediated by the bradykinin type 2 receptor,” J Clin Invest, 2002 April; 109(8): 1057-1063.)
The uptake and effective blocking of plasma extravasation of CFMQ (HGT3711) was examined following oral administration in wild-type (WT) C57/BL6 male mice (n=4/dose group). Mice received a single oral gavage of CFMQ (HGT3711) (10 μL/g) at 3.0 or 10 mg/kg. Blood samples were taken at 20 and 60 minutes post-dose. Following oral administration CFMQ (HGT3711) administration and prior to the terminal time point, mice received an IV injection of Evans blue (EB) dye (30 mg/kg) and were sacrificed. Similar to the IV study, EB concentration in the formamide extract was determined spectrophotometrically (μg EB per milligram of tissue) and efficacy was determined by inhibiting the accumulation of EB in the bladder.

NK3 (h) = target: T1, NK3 (h) (Homo sapiens, UniProt P29371); assay: Off-target receptor binding: NK3
T1 construct: expressed in transfected cells; host or cells: CHO or HEK 293 (not assigned per receptor)
T1 sequence (P29371 1-465): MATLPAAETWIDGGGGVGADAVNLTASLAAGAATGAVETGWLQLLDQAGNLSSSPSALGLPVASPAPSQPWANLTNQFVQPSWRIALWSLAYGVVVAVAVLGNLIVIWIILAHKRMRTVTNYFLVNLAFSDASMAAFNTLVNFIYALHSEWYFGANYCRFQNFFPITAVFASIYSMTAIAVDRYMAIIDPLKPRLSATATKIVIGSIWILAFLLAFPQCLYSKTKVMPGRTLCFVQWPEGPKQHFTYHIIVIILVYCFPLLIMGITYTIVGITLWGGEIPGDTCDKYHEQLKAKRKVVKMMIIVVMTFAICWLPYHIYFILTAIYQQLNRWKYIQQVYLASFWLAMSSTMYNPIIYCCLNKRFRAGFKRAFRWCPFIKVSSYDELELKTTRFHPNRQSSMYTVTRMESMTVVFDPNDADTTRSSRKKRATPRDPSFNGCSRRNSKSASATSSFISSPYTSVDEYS
Procedure: (§2) To determine the affinity to the B2-bradykinin receptor, CFMQ was compared to a diverse set of receptors and reference agents in an in vitro assay using cells from rat heart, urinary bladder, cerebral cortex, as well as human recombinant cells (CHO and HEK 293) and other cell lines. Each assay included a ligand at a specific concentration (concentration ranging from 0.007-10 nM), in addition to a non-specific ligand (concentration ranging from […]) for incubation periods ranging from 15 minutes to 6 hours at 4°-37° C. The specific binding to the receptors was defined as the difference between the total binding and the nonspecific binding, determined in the presence of an excess of unlabeled CFMQ. The concentration causing a half-maximal inhibition of control specific binding (IC50 values) and inhibition constants (Ki) were determined, and each reference compound was within the accepted limits of the historic average (±0.5 log units).

[2] = In vitro microsomal stability, mini-pig; format: in vitro ADME; details: Mini-Pig (Gotting), Male
Procedure: (§3) In vitro metabolic stability studies were performed to determine hepatic stability in vivo. CFMQ was incubated in liver microsomal preparations from mouse, rat, dog, mini-pig, and humans, as well as an additional study with monkey and human. CFMQ was incubated with human and animal liver microsomes at 0.3 mg/mL at 37° C. for 30 or 60 minutes. Additional reference compounds were incubated as controls. Following incubation, samples were analyzed by HPLC-MS/MS.

V1a (h) = target: T2, V1a (h) (Homo sapiens, UniProt P37288); assay: Off-target receptor binding: V1a
T2 construct: expressed in transfected cells; host or cells: CHO or HEK 293 (not assigned per receptor)
T2 sequence (P37288 whole entry): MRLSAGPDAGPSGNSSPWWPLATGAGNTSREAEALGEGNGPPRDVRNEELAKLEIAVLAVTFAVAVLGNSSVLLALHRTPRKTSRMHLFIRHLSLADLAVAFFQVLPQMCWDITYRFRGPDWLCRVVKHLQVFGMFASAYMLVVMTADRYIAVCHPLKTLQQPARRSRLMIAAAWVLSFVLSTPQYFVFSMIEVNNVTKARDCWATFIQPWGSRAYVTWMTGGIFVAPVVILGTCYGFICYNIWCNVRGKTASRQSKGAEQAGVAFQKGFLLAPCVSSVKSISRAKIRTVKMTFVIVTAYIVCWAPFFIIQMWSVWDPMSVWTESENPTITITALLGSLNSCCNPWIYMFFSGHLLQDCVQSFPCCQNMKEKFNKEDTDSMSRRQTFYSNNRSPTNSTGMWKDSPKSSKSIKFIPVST
Procedure: as §2

plasma extravasation [3] = assay: Plasma extravasation (Evans blue in bladder), IV bolus, wild-type mice; format: in vivo, wild-type (WT) C57/BL6 male mice; details: for Evans blue (EB) in the bladder: controls 0.7927
From the text: as §1
The uptake and effective blocking of plasma extravasation of CFMQ was examined following IV (intravenous) bolus administration in wild-type (WT) C57/BL6 male mice (n=4/dose group). Mice received CFMQ (HGT3711) (2 μL/g) at 1.0 μg/kg, 100 μg/kg, and/or 6 mg/kg. Following CFMQ administration and prior to the terminal time point, mice received an IV injection of Evans blue (EB) dye (30 mg/kg) and were sacrificed. The bladder was removed, dried and weighed and extracted in formamide (1.0 mL). EB concentration in the formamide extract was determined spectrophotometrically and EB content was calculated as μg EB per milligram of tissue weight. Efficacy was determined by inhibiting the accumulation of EB in the bladder.
CFMQ doses of 0.001, 0.05, 0.1, 0.25, 0.5, 1.0, and or 3.0 mg/kg were administered as IV bolus injections to WT mice (n=8/dose group).

BZD (peripheral) = target: T3, BZD (peripheral) (Rattus norvegicus, UniProt P16257); assay: Off-target receptor binding: BZD (peripheral)
T3 construct: from tissue
Procedure: as §2

plasma extravasation [4] = assay: Plasma extravasation (Evans blue in bladder), oral, C1-INH knockout mice; format: in vivo, C1-INH-KO mice
[5] = In vitro microsomal stability, monkey; format: in vitro ADME; details: Monkey (Cynomolgus), Male
Procedure: as §3

diverse set of receptors = assay: Receptor binding and selectivity panel
Procedure: as §2

[6] = In vitro microsomal stability, dog; format: in vitro ADME; details: Dog (Beagle), Male
Procedure: as §3

- IC50 (NK3 (h)): 1100 nM
- Ki (NK3 (h)): 2700 nM
- nH (NK3 (h)): 1.1
- inhibition at 10 µM (NK3 (h); CFMQ at 10 μM): 53%
- % Remaining [30 minutes] ([2]; 30 minutes): 74%
- % Remaining [60 minutes] ([2]; 60 minutes): 58%
- IC50 (V1a (h)): 1500 nM
- Ki (V1a (h)): 9400 nM
- nH (V1a (h)): 1.3
- inhibition at 10 µM (V1a (h); CFMQ at 10 μM): 51%
- IC50 (BZD (peripheral)): 1400 nM
- Ki (BZD (peripheral)): 1200 nM
- nH (BZD (peripheral)): 1.7
- inhibition at 10 µM (BZD (peripheral); CFMQ at 10 μM): 93%
- % Remaining [30 minutes] ([5]; 30 minutes): 32%
- % Remaining [60 minutes] ([5]; 60 minutes): 7%
- binding selectivity for B2-bradykinin receptor (diverse set of receptors): selective
- % Remaining [30 minutes] ([6]; 30 minutes): 66%
- % Remaining [60 minutes] ([6]; 60 minutes): 45%
Compound: Cc1cc(Cl)c(COc2cccc3c(-n4cc(F)cn4)cc(C)nc23)c(Cn2cccc(C#N)c2=O)n1 [CFMQ, 1-((4-Chloro-3-(((4-(4-fluoro-1H-pyrazol-1-yl)-2-methylquinolin-8-yl)oxy)methyl)-6-methylpyridin-2-yl)methyl)-2-oxo-1,2-dihydropyridine-3-carbonitrile]
- inhibition of plasma extravasation to % (compared to vehicle controls) (plasma extravasation [1]; oral 3.0 mg/kg, 4 minutes post dose): 56%
- inhibition of plasma extravasation to % (compared to vehicle controls) (plasma extravasation [1]; oral 3.0 mg/kg, 24 minutes post dose): 58%
- inhibition of plasma extravasation at % (compared to vehicle controls) (plasma extravasation [1]; oral 3.0 mg/kg): 72%
- inhibition of plasma extravasation to % (compared to vehicle controls) (plasma extravasation [1]; oral 10 mg/kg, 4 minutes post dose): 14%
- inhibition of plasma extravasation to % (compared to vehicle controls) (plasma extravasation [1]; oral 10 mg/kg, 24 minutes post dose): 21%
- inhibition of plasma extravasation at % (compared to vehicle controls) (plasma extravasation [1]; oral 10 mg/kg): 75%
- Evans blue (EB) in the bladder (plasma extravasation [3]; IV bolus 1.0 μg/kg): 0.7602 EB mg/kg tissue
- Evans blue (EB) in the bladder (plasma extravasation [3]; IV bolus 6 mg/kg): 0.0701 EB mg/kg tissue
- inhibition of plasma extravasation vs vehicle (plasma extravasation [3]; IV bolus 0.5, 1.0, and or 3.0 mg/kg, n=8): significant inhibition of plasma extravasation
- inhibition of extravasation (plasma extravasation [3]; IV bolus 1.0 and or 100 μg/kg): did not inhibit extravasation
- ED50 (plasma extravasation [3]; Mus musculus, intravenous, WT model, read-out: effective dose (ED50), plasma extravasation): 0.46 mg/kg
- block of plasma extravasation (plasma extravasation [3]; intravenous, high doses (500 μg/kg)): blocked plasma extravasation completely
- efficacy compared with 0.4 mg/kg SC Firazyr (plasma extravasation [4]; oral 3.0 mg/kg): nearly as effective
- inhibition of EB accumulation in the bladder (plasma extravasation [4]; oral 10 mg/kg): ~100%
- inhibition of EB accumulation in the bladder (plasma extravasation [4]; oral 30 mg/kg): ~100%
